Non-standard residues stand in square brackets, D forms with d. Residues, ends and D or L forms follow the SMILES beside them. *: point of attachment. Sta = CC(C)C[C@H](N)[C@@H](O)CC(=O)O; Isovaleryl = CC(C)CC(=O)*
Columns and labels:
[1] = test system: protease activity of the culture supernatant of the control strain; test: Protease activity of control strain culture supernatant with pepstatin A added; format: biochemical, Talaromyces cellulolyticus
Experimental: (§1) The protein concentration of the culture supernatant of each strain was measured using Protein Assay CBB (Nacalai Tesque). To confirm protease activity against casein, protease activity was measured using Amplite™ Universal Fluorimetric Protease Activity Assay Kit *Green (AAT Bioquest, Inc.). At the same time, protease activity was also measured under conditions in which an aspartate protease inhibitor pepstatin A was added.
(§2) A 50-μL aliquot of a 2× assay buffer included in the kit containing 0.5 μL of a protease substrate included in the kit (green fluorescent casein substrate) was dispensed into a 96-well plate (Greiner, product number: 655090), and 50 μL of the culture supernatants of the control strain and the Δpep4 strain were added to respective wells. Under conditions with pepstatin A addition, pepstatin A (Sigma-Aldrich, product number: P2032) was added at a final concentration of 10 μM. Protease activity was measured by measuring Relative Fluorescence Units (RFU, excitation/emission=490/525 nm) every 2 minutes at 37° C. using a microplate reader system SpectraMax® M2 (Molecular Devices). The obtained RFU was divided by the total amount of protein used in the measurement and the reaction time, to thereby calculate the protease specific activity per total amount of protein in the culture supernatant. In the table, the term “relative activity” represents the ratio of the protease specific activity of each sample to the protease specific activity of the control strain in the absence of pepstatin A. In the absence of pepstatin A, the protease specific activity of the culture supernatant of the Δpep4 strain was reduced to approximately 36% of that of the control strain.

[2] = test system: protease activity of the culture supernatant of the Δpep4 strain; test: Protease activity of Δpep4 strain culture supernatant with pepstatin A added; format: biochemical, Talaromyces cellulolyticus
Experimental: as §1, §2

[3] = Pepstatin A 10 μM, ratio to control strain in the absence of pepstatin A

CC(C)CC(=O)N[C@H](C(=O)N[C@H](C(=O)N[C@@H](CC(C)C)[C@@H](O)CC(=O)N[C@@H](C)C(=O)N[C@@H](CC(C)C)[C@@H](O)CC(=O)O)C(C)C)C(C)C [Pepstatin A, pepstatin A] (Isovaleryl-VV[Sta]A[Sta]-OH)
Protease specific activity ([1]; Pepstatin A 10 μM, 37° C.): 0.006 RFU/ug/min
Relative activity [1, 3]: 12%
protease specific activity inhibited by pepstatin A ([1]; pepstatin A 10 μM): about 88%
Protease specific activity ([2]; Pepstatin A 10 μM, 37° C.): 0.016 RFU/ug/min
Relative activity [2, 3]: 34%
difference in protease specific activity between presence or absence of pepstatin A ([2]; pepstatin A 10 μM): almost no difference
